“And” between values parts separate entries of the source, which are not always exact repeats. Equal entries are not always repeated.
How the values were obtained:
Format in all cases: cell-based
[1] = system: MDA-MB-436; assay: Peptide array-whole cell binding assay; details: peptide conjugated to cellulose membrane (amino-PEG500), no free C-terminus; cells 75 × 10^3 cells/mL, 37 °C, 4 h; CyQUANT fluorescence relative to peptide 1; spots in duplicate
Description: (§1) Peptide array on the cellulose membrane was used to evaluate the binding of each peptide to different cell lines. The amino functionalized cellulose membrane provided by Intavis is acid hardened providing high stability at pH range from 1–14, permitting its use in acidic or basic conditions while maintaining membrane integrity. The PEG linker on membrane surface functions as a hydrophilic spacer between the peptide and the solid surface (membrane) reducing background signal. Cell lines were carefully selected for screening peptides as our goal here is to screen peptides with high binding/uptake by the TNBC cells. […] EGFR is overexpressed by a number of TNBC cells such as MDA-MB-468 (obtained from primary tumor source) and MDA-MB-231 (from metastasis cancer tissue)[13],[14]. While other TNBC cells like MDA-MB-436 (obtained from metastasis cancer tissue) are known to express low levels of EGFR. Non-tumorigenic epithelial MCF10A and MCF12A cells derived from the breast tissue also express low levels of EGFR[14],[34]. We selected two TNBC cell lines with relatively high expression of EGFR expression (MDA-MB-468/231) and a TNBC cell line with low level of EGFR expression (MDA-MB-436) for the peptide array screening experiments. In addition, non- tumorigenic cell line, MCF-10A was used for comparison. These four cell lines were allowed to bind the membrane by seeding the cells on the membrane and the bound cells were labeled with a fluorescent dye CyQUANT.
(§2) For the binding assay, the peptide array was incubated with the cells in sequential steps as described previously. Briefly peptide array membrane was dipped in ethanol for 30 s to remove any precipitation on it, followed by dipping in sterile PBS (pH 7.4) for another 30 min. The cells (75 × 10^3 cells/mL) were seeded directly on the membrane in a sterile plate and incubated at 37 °C for 4 h. The unbound cells were washed out with sterile PBS (pH 7.4). Thereafter the membrane was placed in a sealed bag and transferred to −80 °C freezer for 2 h. Subsequently it was defrosted at room temperature and treated with CyQUANT solution. The CyQUANT concentration was optimized based on the manufacturer’s protocol and preliminary experiments. Membrane was incubated at 37 °C for 30 min with the dye. After washing with sterile PBS and air drying using blow dryer, the membrane was scanned using Bio-rad chemidoc imager with image lab software. The settings were adjusted based on the excitation (465 nm) and emission (535 nm) wavelengths of CyQUANT dye. Epi Blue was selected for the light source (455–485 nm) and filter number 4 (blue filter, 518–546 nm) was employed. The fluorescence intensity of cancer cells read using chemidoc imager was normalized using the non-cancer cell fluorescence intensity. Eventually relative fluorescence was assessed to select peptides with high affinity to cancer cells and low or minimal binding to normal cells.

[2] = system: MDA-MB-231; assay: Peptide array-whole cell binding assay; details: peptide conjugated to cellulose membrane (amino-PEG500), no free C-terminus; cells 75 × 10^3 cells/mL, 37 °C, 4 h; CyQUANT fluorescence relative to peptide 1; spots in duplicate
Description: as §1, §2

[3] = system: MCF-10A; assay: Peptide array-whole cell binding assay; details: non-tumorigenic cells; peptide conjugated to cellulose membrane (amino-PEG500); cells 75 × 10^3 cells/mL, 37 °C, 4 h; CyQUANT fluorescence relative to peptide 1; spots in duplicate
Description: as §1, §2

[4] = system: MDA-MB-468; assay: Peptide array-whole cell binding assay; details: peptide conjugated to cellulose membrane (amino-PEG500), no free C-terminus; cells 75 × 10^3 cells/mL, 37 °C, 4 h; CyQUANT fluorescence relative to peptide 1; spots in duplicate
Description: as §1, §2

[5] = system: MDA-MB-436; assay: In vitro cellular uptake of FITC-labeled peptides by FACS; details: soluble FITC-β-alanine-labeled peptide 1 µM, 30 min, 37 °C, FBS free media, 10^5 or 10^6 cells/well, MFI of FITC positive cells, three independent experiments ± SD
Description: (§3) Flow cytometry was employed to determine the cellular uptake of selected six peptides (1, 4, 22, 23, 26, and 27). As opposed to the membrane bound (conjugated) peptide in library screening, the peptides used here were soluble (or free) FITC-labeled peptides. Peptides were labeled with FITC in the N-terminal and a β-alanine residue was used as a spacer between the FITC and the peptide sequence. The same three TNBC cells lines (MDA-MB-468, MDA-MB-231 and MDA-MB-436) used for peptide array screening were used here as well. Peptides 1 and 4 were used as controls. […] Peptide 4 was included in this experiment to compare the uptake of this keratin 1 binding peptide with the EGFR binding peptides. Peptides 22, 23, 26, and 27 were identified as the best EGFR binding peptides from the library screening.
(§4) Fluorescence-activated cell-sorting (FACS) analysis was used to check the uptake of the FITC-peptides. The stock solution for the FITC-peptides (100 μM) was prepared by dissolving the peptides in sterile water/10% DMSO. MDA-MB-231, MDA-MB-468 and MDA-MB-436 cells were seeded in 6-well plates with 10^6/10^5 cells/well containing 3 mL media and the plates were incubated at 37 °C overnight. The following day, the media was replaced with fresh FBS free media (1 mL) containing FITC-labeled peptide (1 µM), and further incubated at 37 °C for 30 min. Thereafter the media was removed and the cells were washed with cold PBS to remove any remaining peptide. Adequate trypsin was added to each well followed by 3–5 min incubation at 37 °C. Trypsin was immediately neutralized by adding media and the cell suspension was transferred into centrifuge tubes. The cells were separated and washed twice with FACS sheath fluid. The control cells were treated similarly but without peptide. Two wells were assigned for each peptide and each well sample was read twice in FACS machine. The experiment was repeated once. MFI represents the average of all wells for each peptide.

[6] = system: MDA-MB-231; assay: as above; details: soluble FITC-β-alanine-labeled peptide 1 µM, 30 min, 37 °C, FBS free media, 10^5 or 10^6 cells/well, MFI of FITC positive cells, three independent experiments ± SD
Description: as §3, §4

[7] = system: MDA-MB-468; assay: as above; details: soluble FITC-β-alanine-labeled peptide 1 µM, 30 min, 37 °C, FBS free media, 10^5 or 10^6 cells/well, MFI of FITC positive cells, three independent experiments ± SD
Description: as §3, §4

Substance	Relative Cell Adhesion MDA-MB-436 [1]	Relative Cell Adhesion MDA-MB-231 [2]	Relative Cell Adhesion MCF-10A [3]	Relative Cell Adhesion MDA-MB-468 [4]	Mean Fluorescence Intensity ± SD MDA-MB-436 [5]	Mean Fluorescence Intensity ± SD MDA-MB-231 [6]	Mean Fluorescence Intensity ± SD MDA-MB-468 [7]
AHWYGYTPQNVI [Peptide 6]	1.0	1.3	1.1	1.2			
FHWYGYTPQNVI [Peptide 28]	0.8	1.5	1.2	1.2			
HWYGYTPQNVI [Peptide 20]	1.0	1.5	1.2	1.2			
Peptide 2: scrambled negative control sequence WQTNYIHPYVYG	1.1	1.2	1.0	1.1			
Peptide 4: positive control peptide p160, VPWXEPAYQRFL, binds keratin 1 [reference compound]	1.1	1.3	1.2	1.1	305 ± 58	4791 ± 354	23741 and 23741 ± 3068
WXEAAYQRFL [Peptide 5, positive control, peptide 18 from a previous study, WXEAAYQRFL, reference compound]	1.8	1.7	1.7	1.3			
WYGYTPQNVI [Peptide 21]	1.0	1.9	1.2	1.4			
YAWYGYTPQNVI [Peptide 7]	1.0	1.1	1.0	1.1			
YGPWYNHYITQV [Peptide 3]	1.1	1.1	1.0	1.0			
YHAYGYTPQNVI [Peptide 8]	0.9	1.0	0.9	0.8			
YHWAGYTPQNVI [Peptide 9]	1.2	1.4	1.0	1.3			
YHWFGYTPQNVI [Peptide 29]	1.1	1.7	1.1	1.2			
YHWYAYTPQNVI [Peptide 10]	1.2	1.5	1.1	1.3			
YHWYGATPQNVI [Peptide 11]	1.0	1.3	1.0	1.2			
YHWYGFTPQNVI [Peptide 30]	0.9	1.5	1.0	1.3			
YHWYGYAPQNVI [Peptide 12]	1.0	1.3	1.1	1.0			
YHWYGYTAQNVI [Peptide 13]	1.1	1.5	1.1	1.3			
YHWYGYTPANVI [Peptide 14]	1.2	1.7	1.2	1.4			
YHWYGYTPKNVI [Peptide 26]	1.0	1.6	0.8	1.3	16 ± 18	1877 ± 67	6457 ± 557
YHWYGYTPQAVI [Peptide 15]	0.9	1.6	1.1	1.2			
YHWYGYTPQDVI [Peptide 23]	1.0	2.8	1.4	1.6	36 ± 14	1631 ± 110	4661 ± 883
YHWYGYTPQKVI [Peptide 27]	1.0	1.8	1.0	1.2	21 ± 17	1683 ± 163	5248 ± 407
YHWYGYTPQN [Peptide 19]	1.1	2.0	1.1	1.3			
YHWYGYTPQNAI [Peptide 16]	1.0	1.4	1.2	1.1			
YHWYGYTPQNV [Peptide 18]	1.3	1.9	1.2	1.4			
YHWYGYTPQNVA [Peptide 17]	1.2	1.6	1.2	1.4			
YKWYGYTPQNVI [Peptide 24]	1.0	1.4	1.0	1.1			
YRWYGYTPQNVI [Peptide 25]	1.0	1.9	1.2	1.4			
